What all share (assay): NCI-60 cell line screen, 48 h
Test [1] relates to SNB-19 CNS.
For test [2], the system named is UACC-257 melanoma.
Test [3] concerns SR leukemia.
For test [4], the system named is U251 CNS.
The subject of test [5] is NCI-H460 lung.
For test [6], the system named is NCI-H23 lung.
In test [7] the test system is IGROV1 ovarian.
Test [8] relates to OVCAR-3 ovarian.
Test [9] relates to HCT-116 colon.
Test [10] has as its system HCC-2998 colon.
In test [11] the test system is OVCAR-4 ovarian.
Test [12] concerns M14 melanoma.
In test [13] the test system is SK-MEL-5 melanoma.
The test system of test [14] is SN12C renal.
Test [15] deals with NCI-H522 lung.
Test [16] deals with SW-620 colon.
In test [17] the test system is MDA-MB-435.
The subject of test [18] is MDA-MB-231 breast.

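A five-concentration, 48-hour dose response in 96-well plates underlies each endpoint, interpolated linearly between surrounding concentrations. TGI denotes the concentration required for complete inhibition of growth.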

In the case of `C[C@]12CCc3nn(-c4ccccc4)nc3C1CC[C@@H]1C2CC[C@]2(C)C(=O)CCC12` (stereo partly drawn), the TGI in [1], in test [2], in test [3], in test [4], in [5] and in [6] was more than 100 µM each time. Also, the TGI in [7], in test [8], in [9], in [10], in [11] and in test [12] was more than 100 µM throughout. For the same compound, the TGI in test [13], in [14], in test [15] and in test [16] was more than 100 µM each time.
Regarding `COc1cc(OC)c(/C=N\Nc2nc3ccccc3c(=O)n2-c2ccccc2)c(OC)c1`, the TGI in test [1] was 78.6 µM; in test [2] it was more than 76.5 µM; in test [3] it was more than 100 µM; in test [4], more than 100 µM; in [5] it was more than 77.8 µM; in [17], more than 72.7 µM. Further, the TGI in [6] was more than 100 µM; in test [7], more than 100 µM; in [8], 50.9 µM; in test [9] it was 40.6 µM; in test [10], more than 100 µM; in test [11], more than 86.1 µM. In addition, the TGI is 84.6 µM in test [12]; 65.5 µM in test [18]; more than 79.7 µM in test [13]; 98.8 µM in test [14]; more than 100 µM in test [15]; more than 100 µM in [16].
As for `CCCC(C(=O)OC)C1N=C(NC#N)N(Cc2ccccc2)C1=O` (stereo not drawn), the TGI in test [1], in test [2], in test [3], in test [4], in test [5] and in [6] was more than 100 µM throughout. In addition, the TGI in test [7], in test [8], in [9], in test [10], in [11] and in [12] was more than 100 µM each time. The TGI in test [13], in [14], in test [15] and in test [16] was more than 100 µM in each case.
As to `C=C(C)[C@H]1CC(=O)[C@@]2(C)C[C@H]3O[C@]3(C)CC/C=C(\C)CC[C@H]12`, the TGI in test [1] was more than 100 µM; in test [2] it was 55.8 µM; in [4], more than 100 µM; in test [5] it was more than 100 µM; in [17], more than 100 µM; in [6] it was more than 100 µM. Also, the TGI in test [7] is more than 100 µM; in test [8] it was 80.1 µM; in test [9] it was 85.4 µM; in test [10], more than 100 µM; in test [11], more than 100 µM; in test [18], more than 100 µM. The TGI in [13] is 95.6 µM; in test [14], 54.9 µM; in test [15], more than 100 µM; in [16] it was more than 100 µM.
Turning to `CC(N)C(C)c1ccccc1` (stereo not drawn), the TGI in [1], in [2], in [3], in test [4], in test [5] and in [6] was more than 100 µM throughout. Also, the TGI in test [7], in [8], in test [9], in [10], in [11] and in [12] was more than 100 µM throughout. Besides, the TGI in test [13], in test [14], in [15] and in [16] was more than 100 µM throughout.
As to `COc1ccc(-c2cc(=O)c3cc(O)ccc3o2)c(OC)c1OC`, the TGI is more than 100 µM in test [1]; more than 100 µM in [2]; 77.6 µM in [3]; more than 100 µM in [6]; more than 100 µM in test [7]; 46.3 µM in [8]. In addition, the TGI in test [9] is 61.8 µM; in [10] it was more than 100 µM; in [11] it was more than 100 µM; in test [12] it was more than 100 µM; in test [14] it was more than 100 µM; in [15], 64.6 µM. In test [16], this compound showed a TGI of more than 100 µM.
Take `CC(C)C(CCOS(=O)(=O)O)CCC(C)[C@H]1[C@@H](O)C(O)C2[C@]3(O)C[C@@H](O)C4(O)C[C@@H](O)CC[C@]4(C)C3CC[C@@]21C` (stereo partly drawn): the TGI in [1], in test [3], in [4], in test [5], in test [6] and in test [7] was more than 100 µM in each case. Besides, the TGI in test [8], in [9], in test [10], in test [11], in test [12] and in [13] was more than 100 µM throughout. Further, the TGI in test [14], in test [15] and in [16] was more than 100 µM in each case.
`N#C/C(=C\c1ccc[nH]1)C(=O)c1ccccc1`: the TGI in [1], in [2], in [3], in test [4], in test [5] and in test [6] was more than 100 µM in each case. Besides, the TGI in [8], in [9], in [10], in [11], in test [12] and in [13] was more than 100 µM throughout. In addition, the TGI in test [14], in test [15] and in test [16] was more than 100 µM in each case.
`Cn1c(=O)n(C2(C)CSC2)c2ccccc21`: the TGI in test [1], in test [2], in test [3], in test [4], in test [5] and in test [6] was more than 100 µM throughout. In addition, the TGI in [7], in [9], in test [10], in test [11], in test [12] and in test [13] was more than 100 µM in each case. Besides, the TGI in [14], in test [15] and in test [16] was more than 100 µM throughout.
Turning to `CCN(/N=C1\CC2C=CCN(C2)C(=O)Cc2c1[nH]c1ccccc21)S(=O)(=O)c1ccc(C)cc1` (stereo not drawn), the TGI in test [1], in [2], in test [3], in test [4], in [6] and in test [7] was more than 100 µM each time. In addition, the TGI in [9], in [10], in test [11], in [13], in test [14] and in [15] was more than 100 µM throughout. This compound registered a TGI in [16] of more than 100 µM.
Regarding `C/C(CCN(C)C)=N\OC(=O)c1ccccc1`, the TGI in [1], in [2], in test [3], in test [4], in test [5] and in test [6] was more than 100 µM throughout. The TGI in test [7], in test [8], in test [9], in test [10], in test [11] and in test [12] was more than 100 µM throughout. The TGI in test [13], in [14], in [15] and in test [16] was more than 100 µM in each case.
As for `CCN(CC)C(=O)CC12CCCCC1=Nc1ccccc12` (stereo not drawn), the TGI in [2], in test [4], in test [5], in test [6], in [7] and in test [8] was more than 100 µM in each case. The TGI in [9], in test [10], in [11], in test [12], in test [13] and in [16] was more than 100 µM each time.
Turning to `CC1=CC[C@@H](C(C)(C)O)C[C@@H]1O`, the TGI in [1], in test [2], in test [3], in [4], in test [5] and in test [6] was more than 5000 µM in each case. Further, the TGI in [7], in test [8], in test [9], in [10], in test [11] and in [12] was more than 5000 µM each time. For the same compound, the TGI in test [13], in test [14], in test [15] and in test [16] was more than 5000 µM throughout.
On to `C=C1CN2CCc3c([nH]c4ccccc34)C2CC1CC(=O)N(C)C` (stereo not drawn), for which the TGI in test [1], in test [2], in [3], in [4], in test [5] and in [6] was more than 309 µM throughout. For the same compound, the TGI in test [7], in [8], in test [9], in test [10], in test [13] and in test [14] was more than 309 µM each time. The TGI in [15] and in test [16] was more than 309 µM in each case.
`CSC1=Nc2ccccc2N=C(c2ccccc2)C1`: the TGI in test [1] was more than 100 µM; in [2], more than 100 µM; in test [3], more than 100 µM; in test [4], more than 100 µM; in [5], 46.8 µM; in test [6], more than 100 µM. Also, the TGI in test [7] is more than 100 µM; in test [8], more than 100 µM; in [9], 45.6 µM; in test [10], more than 100 µM; in test [11], more than 100 µM; in [12], more than 100 µM. Further, the TGI in [13] is more than 100 µM; in test [14], more than 100 µM; in test [15], more than 100 µM; in [16] it was 32.6 µM.
In the case of `COC(=O)C(C(=O)C(=O)Nc1ccccc1C)c1nc2ccc([N+](=O)[O-])cc2[nH]c1=O` (stereo not drawn), the TGI in test [1], in test [2], in [3], in test [4], in test [5] and in test [6] was more than 100 µM throughout. Further, the TGI in test [7], in test [8], in test [9], in [10], in [11] and in test [12] was more than 100 µM each time. Also, the TGI in [13], in test [14], in test [15] and in test [16] was more than 100 µM each time.
As for `COC(=O)C1=CCC2c3[nH]c4ccccc4c3CCN2C1` (stereo not drawn), the TGI in test [1], in test [2], in test [3], in [4], in test [5] and in test [6] was more than 354 µM in each case. Also, the TGI in test [7], in [8], in test [9], in [10], in [13] and in [14] was more than 354 µM each time. Further, the TGI in test [15] and in [16] was more than 354 µM in each case.
Regarding `CC(=O)O[C@@H]1CC[C@@]2(C)C(=O)C34C[C@@]5(C)C([C@@H](C)CCCC(C)C)CCC5(C)[C@](O)(O3)C(=O)[C@H]4C2C1(C)C` (stereo partly drawn), the TGI in test [1] was determined as 30.7 µM; in test [2], 32.3 µM; in [3], 35.2 µM; in test [4], 27.4 µM; in test [5], 18.5 µM; in test [6] it was 27.4 µM. Moreover, the TGI in test [7] was found to be 31.6 µM; in test [8], 25.1 µM; in test [9], 27 µM; in test [10], 23.5 µM; in [11], 26.2 µM; in test [12] it was 25.8 µM. In addition, the TGI came to 28.4 µM in test [13], 26.7 µM in [14], 25.5 µM in test [15] and 24.5 µM in test [16].
